Measurements as given in patent publication US9693994B2, “Class IIa HDAC inhibitors for the treatment of infection” (Research Development Foundation, priority 2014, dated 2017).
Read-outs that look alike come from different tables or passages of the source.

Assays:
[1] = test system: Bone Marrow Macrophages (BMMs); assay: Cytokine mRNA and secretion in LPS-treated bone marrow macrophages; format: cell-based, mouse
NF-κB subunit p65 = assay: NF-κB signalling, immunoblot and ChIP in LPS-treated BMMs; format: cell-based, mouse
Description: Bone marrow macrophage cells (BMMs) were prepared from mouse bone marrow cells as described ([…] and Porse, 2008). BMMs were plated in 150-mm plates and exposed to LPS (10 ng/ml) with or without PGE2 (100 nM) for 1 hr. ChIP assays were performed as described (Screaton et al., 2004). RNA was isolated by RNeasy kit (Qiagen).

HDAC4 = HDAC4 dephosphorylation and localization in BMMs; format: cell-based, mouse; details: wild-type BMMs, PGE2 in combination with LPS
Description: Bone marrow macrophage cells (BMMs) were prepared from mouse bone marrow cells as described (Weischenfeldt and Porse, 2008).

[2] = LPS-induced sepsis: survival and circulating cytokines; format: in vivo, mice; details: for effect on survival after LPS: wild-type/control mice
Description: Cytokine and Metabolite Analysis: Mice were injected with LPS (30 mg/kg) with or without Rolipram (5 mg/kg for 16 hours (h) and serum was obtained through cardiac puncture. BMMs were stimulated with LPS (10 ng/ml) with or without PGE2 (100 nM) for 16 hr and supernatant was collected.
All mice were housed in colony cages with a 12 hr light/dark cycle in a temperature-controlled environment. For LPS-induced sepsis, mice were injected intraperitoneally with 30 mg/kg LPS or PBS (UT). Survival after LPS was monitored. For studies with KO mice, age-matched wild-type littermates were employed as controls.

[3] = Glucose and insulin tolerance testing in HFD-fed mice; format: in vivo; details: rolipram 7 days
Description: For HFD studies, 6-week-old mice were transferred to a 60% HFD (Research Diets, D12492) for 4 to 12 weeks as indicated. Magnetic resonance imaging scans for fat and lean mass were performed using an Echo MRI-100 instrument according to the manufacturer's instructions. For metabolic cage studies, mice were individually housed for at least 2 days. Food intake, total activity, oxygen consumption and carbon dioxide production were simultaneously measured for individually housed mice with a LabMaster system (TSE Systems). Data were collected for 2-3 days and analyzed. For glucose tolerance testing, mice were fasted for 16 h and then injected i.p. with glucose (1.5 g/kg). For insulin tolerance testing, mice were fasted 2 h and injected i.p. with insulin (Humulin; 1 U/kg). Rolipram (5 mg/kg/day) was injected i.p. for 7 days. Blood was collected from the tail vein and glucose levels were measured with a One Touch Ultra Glucometer (Johnson & Johnson).

[4] = Leptin injection in ob/ob mice: norepinephrine, cAMP and HDAC4 in adipose
histone deacetylase = details: Yoshida et al., 1990; read-out: Ki, inhibitor of histone deacetylase; cited from earlier work

pertussis toxin
cytokine gene expression [1]: lowered

CCCCC[C@H](O)/C=C/[C@H]1[C@H](O)CC(=O)[C@@H]1C/C=C\CCCC(=O)O [PGE2, Prostaglandin E2]
pro-inflammatory cytokine mRNA amounts and secretion ([1]; cultured BMMs exposed to LPS): reduced | IL10 mRNA and protein secretion ([1]; wild-type BMMs, LPS plus PGE2): upregulated | activation of P38 or JNK, phosphorylation of IκBα or p65 in response to LPS (NF-κB subunit p65; BMMs, LPS plus PGE2): did not interfere | p65 recruitment to the TNFα and IL12β promoters (NF-κB subunit p65; BMMs, LPS plus PGE2 compared to LPS alone): reduced | amounts of acetylated p65 in HDAC4 MKO cells (NF-κB subunit p65; HDAC4 MKO BMMs, LPS plus PGE2): did not reduce | LPS-dependent increases in p65 and histone H4K5 acetylation over cytokine promoters (NF-κB subunit p65; wild-type BMMs, LPS plus PGE2): blocked | HDAC4 dephosphorylation at Ser246 and nuclear translocation (HDAC4): triggered

CN[C@@H]1C[C@H]2O[C@@](C)([C@@H]1OC)n1c3ccccc3c3c4c(c5c6ccccc6n2c5c31)C(=O)NC4 [staurosporine]
cytokine gene expression ([1]; BMMs exposed to LPS, pre-treatment with SIK inhibitor 10 nM): decreased

COc1ccc(C2CNC(=O)C2)cc1OC1CCCC1 (stereo not shown) [Rolipram]
effect on LPS-induced cytokine release (circulating TNFα, IL12β) ([2]; C57BL/6J mice, LPS 30 mg/kg, Rolipram 5 mg/kg co-administered): blocked | effect on survival after LPS in HDAC4 MKO mice ([2]; HDAC4 MKO littermates, LPS plus rolipram): modest effects | effect on survival after LPS ([2]; LPS 30 mg/kg, Rolipram 5 mg/kg co-administered): blocked | effect on survival after LPS ([2]; LPS 30 mg/kg, Rolipram 5 mg/kg co-administered, listed as rolipram): improved survival | glucose tolerance and insulin sensitivity in HDAC4 MKO ([3]; HDAC4 MKO littermates on HFD): not | glucose tolerance and insulin sensitivity ([3]; wild-type mice on HFD): improved

cholera toxin
cytokine gene expression [1]: lowered

CC(C)NCC(O)COc1cccc2ccccc12 (stereo not shown) [propranolol]
leptin-induced HDAC4 de-phosphorylation in WAT ([4]; leptin plus propranolol): propranolol-sensitive | leptin-induced rise in cAMP ([4]; ob/ob mice, leptin plus β adrenergic antagonist): blocked

CC(/C=C/C(=O)NO)=C\[C@@H](C)C(=O)c1ccc(N(C)C)cc1 [Trichostatin A, (2E,4E,6R)-7-(4-(Dimethylamino)phenyl)-N-hydroxy-4,6-dimethyl-7-oxo-2,4-heptadienamide]
Ki (histone deacetylase): ~3.4 nM

B1: leptin: hormone injected into ob/ob mice; triggers catecholamine-dependent increases in cAMP signaling (protein, UniProt P41160 22-167, looked up)
Leptin: VPIQKVQDDTKTLIKTIVTRINDISHTQSVSAKQRVTGLDFIPGLHPILSLSKMDQTLAVYQQVLTSLPSQNVLQIANDLENLRDLLHLLAFSKSCSLPQTSGLQKPESLDGVLEASLYSTEVVALSRLQGSLQDILQQLDVSPEC
HDAC4 de-phosphorylation in WAT ([4]; leptin administration): promoted | nuclear translocation of HDAC4 in adipose resident macrophages ([4]; leptin administration): stimulated | circulating concentrations of norepinephrine and cAMP content in epididymal fat pads ([4]; ob/ob mice, leptin injection): upregulated
